These results are taken from PMC3909768 (Journal of Cancer, 2014).

One data set concerns LnCaP-Z2 tumors. Nature of the data set: LnCaP-Z2 xenograft antitumor efficacy. It counts as in vivo, male CB17-SCID mice. The settings on record: 50 mg/kg once daily.
Data set [1] is described as follows: Drug concentration in plasma and xenograft tumor after 21-day dosing. The settings on record: male, CB17-SCID, mouse, in vivo.
Data set [2] can be described thus: Plasma protein binding by equilibrium dialysis, rat. The settings on record: Rats plasma, 1 uM, equilibrium dialysis 4h 37C. It counts as in vitro ADME. Background: In equilibrium dialysis only unbound substance equilibrates across the membrane.
Data set [3] in a line: Plasma protein binding by equilibrium dialysis, dog. It counts as in vitro ADME. The settings on record: Dogs plasma, 1 uM, equilibrium dialysis 4h 37C.
Data set [4] in a line: Plasma protein binding by equilibrium dialysis, human. The data set is classed as in vitro ADME. The settings on record: 1 uM, equilibrium dialysis 4h 37C.
Data set [5] in a line: Brain and prostate distribution after single IV in rats. The settings on record: rat, in vivo.
Another data set deals with CYP3A. Nature of the data set: CYP3A induction in human hepatocytes. It counts as in vitro ADME. Particulars: for CYP3A induction, in words: 1uM; for CYP 3A induction, Positive control, %: human hepatocytes, 48 hours.
For another data set, the target named is GABA receptors. Particulars: read-out: IC50, GABA receptors; ref [6]; cited from earlier work.
[6] abbreviates: 2 mg/kg, Prostate, single IV 2 mg/kg.
Setting [7] is: 2 mg/kg, brain, single IV 2 mg/kg.
Setting [8] is: 2 mg/kg, plasma, single IV 2 mg/kg.
Setting [9] is: 1 mg/kg, Prostate, single IV 1 mg/kg.
The mark [10] stands for this setting: 1 mg/kg, brain, single IV 1 mg/kg.
Where [11] appears, read: 1 mg/kg, plasma, single IV 1 mg/kg.

Values joined by “and” are separate entries in the source; they are usually repeats but may differ in a detail not shown here. Identical values can stand only once.

As for `CC(O)(CS(=O)(=O)c1ccc(F)cc1)C(=O)Nc1ccc(C#N)c(C(F)(F)F)c1` (stereo not drawn) [Bicalutamide, reference compound], the “antitumor efficacy, in words” value in the data set with LnCaP-Z2 tumors is “less effective”. In data set [1] (50 mg/kg), the Kp at 24 h was found to be 2.5 ± 1.36; the concentration at 24 h was 3250 ng/mL and 8740 ng/g.

With `CNC(=O)c1ccc(N2C(=S)N(c3ccc(C#N)c(C(F)(F)F)c3)C(=O)C2(C)C)cc1F` [MDV3100], the Bound fraction in data set [2] was 96.4%; in data set [3], 97.3%; in data set [4], 98.4%. In data set [5] (2 mg/kg), this compound registered a Kp at 30 min of 0.39 ± 0.03. The compound also gave a Kp at 120 min in data set [5] (2 mg/kg) of 0.33 ± 0.16. The concentration at 30 min in data set [5] (setting [6]) was found to be 102 ± 4 ng/g; in data set [5] (setting [7]), 164 ± 19 ng/g; in data set [5] (setting [8]) it was 263 ± 19 ng/mL. In addition, the concentration at 120 min was found to be 124 ± 27 ng/g in data set [5] (setting [6]), 152 ± 31 ng/g in data set [5] (setting [7]) and 377 ± 153 ng/mL in data set [5] (setting [8]). In the data set on CYP3A, the “CYP3A induction, in words” value was “still active”. The “CYP 3A induction, Positive control, %” value with CYP3A (1 uM) was determined as 10.0±2.0%; in the data set with CYP3A (10 uM), 73.3±6.8%. Besides, the Kp at 24 h in data set [1] (10 mg/kg) was determined as 0.53 ± 0.15.

The term IC50 denotes the concentration that inhibits the measured activity by half. With `CNC(=O)c1ccc(N2C(=S)N(c3cnc(C#N)c(C(F)(F)F)c3)C(=O)C23CCC3)cc1F` [ARN-509], in data set [5] (1 mg/kg), the Kp at 30 min amounted to 1.94 ± 0.24. This compound also registered a Kp at 120 min in data set [5] (1 mg/kg) of 3.15 ± 0.94. Moreover, the concentration at 30 min in data set [5] (setting [9]) worked out at 487 ± 73 ng/g; in data set [5] (setting [10]), 241 ± 21 ng/g; in data set [5] (setting [11]), 251 ± 29 ng/mL. In addition, the concentration at 120 min in data set [5] (setting [9]) came to 482 ± 120 ng/g; in data set [5] (setting [10]), 176 ± 31 ng/g; in data set [5] (setting [11]), 153 ± 10 ng/mL. Also, the “CYP3A induction, in words” value with CYP3A was “still active”. Moreover, the “CYP 3A induction, Positive control, %” value is reported as 16.3±2.5% in the data set with CYP3A (1 uM) and 102.7±13.0% with CYP3A (10 uM). In addition, the half-maximal inhibitory concentration (IC50) on GABA receptors is 3000 nM.
